We go through four molecules from patent US12661364B2, “Remedy for hair growth enhancing” (GURUS BIOPHARM INC., priority 2019, dated 2026).

The nature of data set [1]: Stability of the cosmetic composition during accelerated storage at room temperature (HPLC content of the combination's components). It is filed as physicochemical. The conditions noted are these: for Prostaglandin F2 content, % (as % to the initial one): +25-27° C., measurement error 5%; for Stability / content in the cosmetic composition during accelerated storage (in words): room temperature, 20 degrees above the recommended +4 to +8° C. As for the experimental part:
The cosmetic composition for stimulation of hair growth (example of composition 1 according to the invention, see above) was held at +25-27° C. for 2 months. Samples were taken every week and analyzed for the content of the components of the combination by HPLC. To prepare a sample for analysis, 1 g of gel was taken from the cosmetic composition into a round-bottom glass centrifuge tube and 2 g of distilled ethyl acetate were added. The mixture was shaken on a Multi-Vortex V32 until the liquids were completely mixed for 3 min. The resulting suspension was centrifuged for 5 min at 6000 rpm for complete separation of the layers. The upper layer (ethyl acetate layer) was carefully removed with a glass pipette and transferred to a conical-bottom flask (V25 mL). Another 2 g of distilled ethyl acetate were added to the solution remaining in the test tube, and the extraction procedure was repeated once again. The upper layer (ethyl acetate layer) was carefully removed with a glass pipette and added to the previously collected solution. The organic layer was evaporated on a rotary evaporator and dried in an oil pump vacuum. The residue was dissolved in ethanol to obtain a solution with an ethanol concentration of 26 mg/100 μL. The extract was analyzed by microcolumn reversed-phase HPLC in an acetonitrile-water gradient system (linear gradient, 5→100% acetonitrile). The components of the combination of the invention were identified by comparison with reference standards. The quantity of each component was estimated by the signal area in the chromatogram.

The subject of another data set is scalp hair growth. The conditions noted are these: 0.1% latanoprost applied to the scalp, after 24 weeks; cited from earlier work.

SMILES strings stand for the structures.

For `CCCCC[C@H](O)/C=C/[C@@H]1[C@@H](C/C=C\CCCC(=O)N[C@H](CO)C(=O)OC(C)C)[C@@H](O)C[C@H]1O` [modified prostaglandin F2], the “Prostaglandin F2 content, % (as % to the initial one)” value was 100% in data set [1] (hold time 0 weeks, cosmetic composition for stimulation of hair growth); 100% in data set [1] (hold time 1 week); 100% in data set [1] (hold time 2 weeks); 99% in data set [1] (hold time 3 weeks); 99% in data set [1] (hold time 4 weeks); 98% in data set [1] (hold time 5 weeks). In data set [1] (hold time 6 weeks), the “Prostaglandin F2 content, % (as % to the initial one)” value amounted to 98%. Moreover, the “Stability / content in the cosmetic composition during accelerated storage (in words)” value (“Stability / content” below) in data set [1] is on record as “decreases very slowly”.

`CCCCC[C@H](O)/C=C/[C@H]1[C@H](O)CC(=O)[C@@H]1C/C=C\CCCC(=O)OC(CO[N+](=O)[O-])CO[N+](=O)[O-]` [(Z)-1,3-bis(nitroxy)propanyl-2-7-((1R,2R,3R)-3-hydroxy-2-((S,E)-3-hydroxyoctene-1-yl-1)-5-oxocyclopentenyl)-5-heptenoate]: the “Stability / content” value in data set [1] was “decreases over time”.

In the case of `CC(C)OC(=O)CCC/C=C\C[C@@H]1[C@@H](CC[C@@H](O)CCc2ccccc2)[C@H](O)C[C@@H]1O` [latanoprost], the “Hair density (terminal and vellus hair)” value in the data set on scalp hair growth was “significant increase in hair density”.

With `CCCCC[C@H](O)/C=C/[C@H]1[C@H](O)CC(=O)[C@@H]1CCCCCCC(=O)OC(CO[N+](=O)[O-])CO[N+](=O)[O-]` [E1, (Z)-1,3-bis(nitroxy)propan-2-yl-7-((1R,2R,3R)-3-hydroxy-2-((S,E)-3-hydroxyoct-1-en-1-yl)-5-xocyclopentyl)heptanoate], the “Stability / content” value in data set [1] is on record as “decreases over time”.
